Measurements published in ChEMBL document CHEMBL1122054, “Lysosomotropic agents. 4. Carbobenzoxyglycylphenylalanyl, a new protease-sensitive masking group for introduction into cells” (J Med Chem, 1982).
Where a SMILES comes first, the peptide text is derived from it. [ ]: non-standard residue; d: D form. The star is where a group is joined. Cbz = O=C(OCc1ccccc1)*

Columns and labels:
[1] = organism: Mus musculus; assay: Appearance of mouse peritoneal macrophages after 3h of treatment with compound at a concentration of 0.375 mM; OK; format: functional, organism-based
[2] = organism: Mus musculus; assay: Toxicity toward P-815 Mastocytoma cells after 5 hr was determined as percent of [51Cr]- release from labeled cells as a measure of cell death. at a concentration of 0.750 mM. (expt III); format: functional
[3] = organism: Mus musculus; assay: Cytotoxicity was determined against mouse peritoneal macrophages (MPM) and the percent of LDH released after 24 hr was determined as a measure of cell death at a concentration of 0.375 mM (expt I); format: functional
[4] = organism: Mus musculus; assay: Cytotoxicity was determined against mouse peritoneal macrophages (MPM) and the percent of LDH released after 24 hr was determined as a measure of cell death at a concentration of 0.375 mM (expt II); format: functional
[5] = organism: Mus musculus; assay: Toxicity toward P-815 Mastocytoma cells after 5 hr was determined as percent of [51Cr]- release from labeled cells as a measure of cell death. at a concentration of 0.281 mM. (expt IV); format: functional
[6] = organism: Mus musculus; assay: Cytotoxicity was determined against mouse peritoneal macrophages (MPM) and the percent of LDH released after 24 hr was determined as a measure of cell death at a concentration of 0.561 mM (expt II); format: functional
[7] = organism: Mus musculus; assay: Toxicity toward P-815 Mastocytoma cells after 5 hr was determined as percent of [51Cr]- release from labeled cells as a measure of cell death. at a concentration of 0.208 mM. (expt III); format: functional
[8] = organism: Mus musculus; assay: Toxicity was evaluated for the compound at a concentration of 0.208 mM against […] Mastocytoma.; format: functional
[9] = organism: Mus musculus; assay: Toxicity toward P-815 Mastocytoma cells after 5 hr was determined as percent of [51Cr]- release from labeled cells as a measure of cell death. at a concentration of 0.257 mM. (expt III); format: functional
[10] = organism: Mus musculus; assay: Cytotoxicity was determined for the compound against mouse peritoneal macrophages (MPM) at a concentration of 0.514 mM.; format: functional
[11] = organism: Mus musculus; assay: Cytotoxicity was determined for the compound against mouse peritoneal macrophages (MPM) at a concentration of 0.541 mM.; format: functional
[12] = organism: Mus musculus; assay: Toxicity was evaluated for the compound at a concentration of 0.257 mM against […] Mastocytoma.; format: functional
[13] = organism: Mus musculus; assay: Toxicity toward P-815 Mastocytoma cells after 5 hr was determined as percent of [51Cr]- release from labeled cells as a measure of cell death. at a concentration of 0.282 mM. (expt IV); format: functional
[14] = organism: Mus musculus; assay: Toxicity toward P-815 Mastocytoma cells after 5 hr was determined as percent of [51Cr]- release from labeled cells as a measure of cell death. at a concentration of 0.282 mM. (expt III); format: functional

Question: For `CCCCCCCCCCCCNCC(F)(F)F`, which Activity [1] is on record?
Answer: The Activity was “OK”.

Question: And the Cr release [2]?
Answer: The Cr release was 15%.

Question: And the LDH release [3]?
Answer: Its LDH release is 52%.

Question: What about the LDH release [4] of the same molecule?
Answer: Its LDH release is 64%.

Question: How did the Cr release [5] turn out when `O=C(CNC(=O)OCc1ccccc1)N[C@H](Cc1ccccc1)C(=O)O` (Cbz-Gly-[dF]-OH) was run?
Answer: The Cr release was 16%.

Question: And the LDH release [6]?
Answer: The LDH release was 17%.

Question: `O=C(CNC(=O)OCc1ccccc1)N[C@@H](Cc1ccccc1)C(=O)N(CCCl)CCCl` was tested. Which Cr release [7] did it give?
Answer: The Cr release was 16%.

Question: What about the Toxicity [8] of the same molecule?
Answer: The Toxicity was 100 µg/mL.

Question: With `CCCCCCCCCCCCNC(=O)[C@@H](Cc1ccccc1)NC(=O)CN` as the molecule, how does the Cr release [9] read?
Answer: The Cr release was 95%.

Question: What about the LDH release [3] of the same molecule?
Answer: Its LDH release is 85%.

Question: What about the LDH release [4] of the same molecule?
Answer: Its LDH release is 78%.

Question: And the Toxicity [10]?
Answer: Its Toxicity is 200 µg/mL.

Question: What about the Toxicity [11] of the same molecule?
Answer: The Toxicity was 210 µg/mL.

Question: And the Toxicity [12]?
Answer: Its Toxicity is 100 µg/mL.

Question: `NC(=O)[C@@H](Cc1ccccc1)NC(=O)CNC(=O)OCc1ccccc1` was tested. Which Cr release [13] did it give?
Answer: The Cr release was 17%.

Question: How did the Cr release [14] turn out when `NC(=O)[C@H](Cc1ccccc1)NC(=O)CNC(=O)OCc1ccccc1` was run?
Answer: The Cr release was 17%.
